According to patent US11130778B2, “CD73 inhibitors” (ORIC Pharmaceuticals, Inc., priority 2019, dated 2021):

Molecular target: T1, CD73 (Homo sapiens, UniProt P21589)
T1 sequence (P21589 27-549): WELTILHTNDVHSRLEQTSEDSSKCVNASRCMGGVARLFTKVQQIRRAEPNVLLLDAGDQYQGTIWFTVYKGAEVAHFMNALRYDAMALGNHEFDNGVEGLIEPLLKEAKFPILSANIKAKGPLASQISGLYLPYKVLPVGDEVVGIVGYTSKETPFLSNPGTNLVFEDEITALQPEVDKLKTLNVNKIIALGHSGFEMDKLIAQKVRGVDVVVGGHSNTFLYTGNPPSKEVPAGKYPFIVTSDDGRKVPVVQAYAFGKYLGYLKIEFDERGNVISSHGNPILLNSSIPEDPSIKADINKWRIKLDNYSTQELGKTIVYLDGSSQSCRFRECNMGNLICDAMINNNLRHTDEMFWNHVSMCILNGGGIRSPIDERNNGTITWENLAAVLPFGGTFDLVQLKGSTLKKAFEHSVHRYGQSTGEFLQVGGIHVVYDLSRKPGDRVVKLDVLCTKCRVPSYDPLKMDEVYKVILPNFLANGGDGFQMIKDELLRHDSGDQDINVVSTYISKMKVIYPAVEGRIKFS
Assay: Biochemical assay of CD73 inhibition (Malachite Green)
Conditions: CD73 0.3208 nM, AMP 15 μM, Tris-HCl pH 7.4, Malachite Green absorbance readout; read-out: CD73_Biochem
Description: Example A1: Biochemical Assay
Assay Reaction Conditions
• Assay Volume: 70 μl • Reaction Volume: 50 μl • CD73: 0.3208 nM • AMP:15 μM • Assay Buffer: 2 5 mM Tris-HCL, pH 7.4, 0.01% Brij-35, 0.01% BSA, 5 mM MgCl2 Assay Procedure:
Made dose titration of testing compounds in assay buffer, 10 points 1/2 log titrations in duplicates starting at 100 μM.
Added 25 µl of CD73 to each well for a final concentration of […].
Incubated at RT for 15 min.
Added 25 µl of AMP to each well for a final concentration of 15 μM.
Incubated at RT for 10 min.
Added […] of Malachite Green Reagent A, incubate at RT for 10 min.
Added […] of Malachite Green Reagent B, incubate at RT for 45 min.
Read the Absorbance on Envision plate reader using excitation filter: Cy5 […].
The ability of the compounds disclosed herein to inhibit CD73 activity was quantified and the respective IC50 values were determined. Table 2 provides the biochemical IC50 values of compounds disclosed herein.

IC50 [nM] | Structure (SMILES)
≤ 10 | CC(C)CNc1nc(Cl)nc2c1cnn2[C@@H]1O[C@H](CO[C@](CO)(Cc2nn[nH]n2)P(=O)(O)O)[C@@H](O)[C@H]1O [Example 33, ((R)-2-(((2R,3S,4R,5R)-5-(6-chloro-4-(isobutylamino)-1H-pyrazolo[3,4-d]pyrimidin-1-yl)-3,4-dihydroxytetrahydrofuran-2-yl)methoxy)-1-hydroxy-3-(2H-tetrazol-5-yl)propan-2-yl)phosphonic acid]
10 to 100 | COC[C@@](Cc1nn[nH]n1)(OC[C@H]1O[C@@H](n2ncc3c(NCC(C)C)nc(Cl)nc32)[C@H](O)[C@@H]1O)P(=O)(O)O [Example 34, ((S)-2-(((2R,3S,4R,5R)-5-(6-chloro-4-(isobutylamino)-1H-pyrazolo[3,4-d]pyrimidin-1-yl)-3,4-dihydroxytetrahydrofuran-2-yl)methoxy)-1-methoxy-3-(2H-tetrazol-5-yl)propan-2-yl)phosphonic acid]
≤ 10 | COC[C@](Cc1nn[nH]n1)(OC[C@H]1O[C@@H](n2ncc3c(NCC(C)C)nc(Cl)nc32)[C@H](O)[C@@H]1O)P(=O)(O)O [Example 35, ((R)-2-(((2R,3S,4R,5R)-5-(6-chloro-4-(isobutylamino)-1H-pyrazolo[3,4-d]pyrimidin-1-yl)-3,4-dihydroxytetrahydrofuran-2-yl)methoxy)-1-methoxy-3-(2H-tetrazol-5-yl)propan-2-yl)phosphonic acid]
≤ 10 | COC[C@](OC[C@H]1O[C@@H](n2ncc3c(NC4CCCC4)nc(Cl)nc32)[C@H](O)[C@@H]1O)(C(=O)NO)P(=O)(O)O [Example 36, ((R)-2-(((2R,3S,4R,5R)-5-(6-chloro-4-(cyclopentylamino)-1H-pyrazolo[3,4-d]pyrimidin-1-yl)-3,4-dihydroxytetrahydrofuran-2-yl)methoxy)-1-(hydroxyamino)-3-methoxy-1-oxopropan-2-yl)phosphonic acid]
≤ 10 | COC[C@@](OC[C@H]1O[C@@H](n2ncc3c(NC4CCCC4)nc(Cl)nc32)[C@H](O)[C@@H]1O)(C(=O)NO)P(=O)(O)O [Example 37, ((S)-2-(((2R,3S,4R,5R)-5-(6-chloro-4-(cyclopentylamino)-1H-pyrazolo[3,4-d]pyrimidin-1-yl)-3,4-dihydroxytetrahydrofuran-2-yl)methoxy)-1-(hydroxyamino)-3-methoxy-1-oxopropan-2-yl)phosphonic acid]
≤ 10 | COC[C@](COCc1nn[nH]n1)(OC[C@H]1O[C@@H](n2ncc3c(NC4CCCC4)nc(Cl)nc32)[C@H](O)[C@@H]1O)P(=O)(O)O [Example 38, ((S)-1-((2H-tetrazol-5-yl)methoxy)-2-(((2R,3S,4R,5R)-5-(6-chloro-4-(cyclopentamino)-1H-pyrazolo[3,4-d]pyrimidin-1-yl)-3,4-dihydroxytetrahydrofuran-2-yl)methoxy)-3-methoxypropan-2-yl)phosphonic acid]
≤ 10 | COC[C@@](COCc1nn[nH]n1)(OC[C@H]1O[C@@H](n2ncc3c(NC4CCCC4)nc(Cl)nc32)[C@H](O)[C@@H]1O)P(=O)(O)O [Example 39, ((R)-1-((2H-tetrazol-5-yl)methoxy)-2-(((2R,3S,4R,5R)-5-(6-chloro-4-(cyclopentylamino)-1H-pyrazolo[3,4-d]pyrimidin-1-yl)-3,4-dihydroxytetrahydrofuran-2-yl)methoxy)-3-methoxypropan-2-yl)phosphonic acid]
≤ 10 | COCCOCC(COCc1nnn[nH]1)(OC[C@H]1O[C@@H](n2ncc3c(NC4CCCC4)nc(Cl)nc32)[C@H](O)[C@@H]1O)P(=O)(O)O (stereo partly drawn) [Example 40, (1-((1H-tetrazol-5-yl)methoxy)-2-(((2R,3S,4R,5R)-5-(6-chloro-4-(cyclopentylamino)-1H-pyrazolo[3,4-d]pyrimidin-1-yl)-3,4-dihydroxytetrahydrofuran-2-yl)methoxy)-3-(2-methoxyethoxy)propan-2-yl)phosphonic acid]
≤ 10 | CC(Cc1nn[nH]n1)(OC[C@H]1O[C@@H](n2ncc3c(NC4CCCC4)nc(Cl)nc32)[C@H](O)[C@@H]1O)P(=O)(O)O (stereo partly drawn) [Example 43, (2-(((2R,3S,4R,5R)-5-(6-chloro-4-(cyclopentylamino)-1H-pyrazolo[3,4-d]pyrimidin-1-yl)-3,4-dihydroxytetrahydrofuran-2-yl)methoxy)-1-(2H-tetrazol-5-yl)propan-2-yl)phosphonic acid]
≤ 10 | COCC(OC[C@H]1O[C@@H](n2ncc3c(NC4CCCC4)nc(Cl)nc32)[C@H](O)[C@@H]1O)(C(=O)O)P(=O)(O)O (stereo partly drawn) [Example 46, 2-(((2R,3S,4R,5R)-5-(6-chloro-4-(cyclopentylamino)-1H-pyrazolo[3,4-d]pyrimidin-1-yl)-3,4-dihydroxytetrahydrofuran-2-yl)methoxy)-3-methoxy-2-phosphonopropanoic acid]
10 to 100 | O=P(O)(O)[C@](CO)(Cc1nn[nH]n1)OC[C@H]1O[C@@H](n2ncc3c(N[C@@H]4CCc5ccccc54)nc(Cl)nc32)[C@H](O)[C@@H]1O [Example 47]
≤ 10 | O=P(O)(O)[C@@](CO)(Cc1nn[nH]n1)OC[C@H]1O[C@@H](n2ncc3c(N[C@@H]4CCc5ccccc54)nc(Cl)nc32)[C@H](O)[C@@H]1O [Example 48, ((R)-2-(((2R,3S,4R,5R)-5-(6-chloro-4-(((R)-2,3-dihydro-1H-inden-1-yl)amino)-1H-pyrazolo[3,4-d]pyrimidin-1-yl)-3,4-dihydroxytetrahydrofuran-2-yl)methoxy)-1-hydroxy-3-(2H-tetrazol-5-yl)propan-2-yl)phosphonic acid]
10 to 100 | O=P(O)(O)C(CO)(OC[C@H]1O[C@@H](n2ncc3c(NC4CCCC4)nc(Cl)nc32)[C@H](O)[C@@H]1O)c1nn[nH]n1 (stereo partly drawn) [Example 49, (1-(((2R,3S,4R,5R)-5-(6-chloro-4-(cyclopentylamino)-1H-pyrazolo[3,4-d]pyrimidin-1-yl)-3,4-dihydroxytetrahydrofuran-2-yl)methoxy)-2-hydroxy-1-(2H-tetrazol-5-yl)ethyl)phosphonic acid]
≤ 10 | O=P(O)(O)[C@@](CO)(Cc1nn[nH]n1)OC[C@H]1O[C@@H](n2ncc3c(NC4CCCC4)nc(C#CC4CC4)nc32)[C@H](O)[C@@H]1O [Example 50, ((R)-2-(((2R,3S,4R,5R)-5-(4-(cyclopentylamino)-6-(cyclopropylethynyl)-1H-pyrazolo[3,4-d]pyrimidin-1-yl)-3,4-dihydroxytetrahydrofuran-2-yl)methoxy)-1-hydroxy-3-(2H-tetrazol-5-yl)propan-2-yl)phosphonic acid]
≤ 10 | O=c1[nH]c(COCC(CO)(OC[C@H]2O[C@@H](n3ncc4c(NC5CCCC5)nc(Cl)nc43)[C@H](O)[C@@H]2O)P(=O)(O)O)no1 (stereo partly drawn) [Example 51, (2-(((2R,3S,4R,5R)-5-(6-chloro-4-(cyclopentylamino)-1H-pyrazolo[3,4-d]pyrimidin-1-yl)-3,4-dihydroxytetrahydrofuran-2-yl)methoxy)-1-hydroxy-3-((5-oxo-4,5-dihydro-1,2,4-oxadiazol-3-yl)methoxy)propan-2-yl)phosphonic acid]
≤ 10 | O=P(O)(O)[C@](CO)(COCc1nn[nH]n1)OC[C@H]1O[C@@H](n2ncc3c(NC4CCC4)nc(Cl)nc32)[C@H](O)[C@@H]1O [Example 52, ((R)-1-((1H-tetrazol-5-yl)methoxy)-2-(((2R,3S,4R,5R)-5-(6-chloro-4-(cyclobutylamino)-1H-pyrazolo[3,4-d]pyrimidin-1-yl)-3,4-dihydroxytetrahydrofuran-2-yl)methoxy)-3-hydroxypropan-2-yl)phosphonic acid]
≤ 10 | COCC(COCc1nn[nH]n1)(OC[C@H]1O[C@@H](n2ncc3c(NC4CCCC4)nc(C#CC4CC4)nc32)[C@H](O)[C@@H]1O)P(=O)(O)O (stereo partly drawn) [Example 53, (1-((2H-tetrazol-5-yl)methoxy)-2-(((2R,3S,4R,5R)-5-(4-(cyclopentylamino)-6-(cyclopropylethynyl)-1H-pyrazolo[3,4-d]pyrimidin-1-yl)-3,4-dihydroxytetrahydrofuran-2-yl)methoxy)-3-methoxypropan-2-yl)phosphonic acid]
≤ 10 | O=P(O)(O)[C@@](CO)(COCc1nn[nH]n1)OC[C@H]1O[C@@H](n2ncc3c(NCC4CC4)nc(Cl)nc32)[C@H](O)[C@@H]1O [Example 54, ((S)-1-((2H-tetrazol-5-yl)methoxy)-2-(((2R,3S,4R,5R)-5-(6-chloro-4-((cyclopropylmethyl)amino)-1H-pyrazolo[3,4-d]pyrimidin-1-yl)-3,4-dihydroxytetrahydrofuran-2-yl)methoxy)-3-hydroxypropan-2-yl)phosphonic acid]
